In PubChem BioAssay (NCI):
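Exposure lasted 48 hours, with cells grown in 96-well plates and compounds tested at five concentrations. TGI marks complete inhibition of growth.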

System: P388 leukemia
Test: NCI tumour cell line growth inhibition, 48 h

With COc1cc(C[C@H]2c3cc(OC)c(OC)cc3CCN2C)c(Oc2cc3c(cc2OC)-c2c(OC)c(OC)cc4c2[C@H](C3)N(C)CC4)cc1OC the TGI was 22 µM.

CC1CCC(NC(=O)N(CCCl)N=O)CC1 (configuration not stated) showed a TGI of 55.8 µM.
